Laboratory results from patent US20040002441A1, “Recombination modulators and methods for producing and using the same” (priority 2000, published 2004).
Values joined by “and” are separate entries in the source; they are usually repeats but may differ in a detail not shown here. Identical values can stand only once. “Also recorded” adds a separate entry of the source. Where no end group is shown, it is not given here.

How the values were obtained:
[1] = biological target: T1, bacteriophage P1 Cre protein (Escherichia phage P1, UniProt P06956); assay: Cre-mediated recombination between two lox site substrates; assay type: biochemical
T1 sequence (P06956 1-343): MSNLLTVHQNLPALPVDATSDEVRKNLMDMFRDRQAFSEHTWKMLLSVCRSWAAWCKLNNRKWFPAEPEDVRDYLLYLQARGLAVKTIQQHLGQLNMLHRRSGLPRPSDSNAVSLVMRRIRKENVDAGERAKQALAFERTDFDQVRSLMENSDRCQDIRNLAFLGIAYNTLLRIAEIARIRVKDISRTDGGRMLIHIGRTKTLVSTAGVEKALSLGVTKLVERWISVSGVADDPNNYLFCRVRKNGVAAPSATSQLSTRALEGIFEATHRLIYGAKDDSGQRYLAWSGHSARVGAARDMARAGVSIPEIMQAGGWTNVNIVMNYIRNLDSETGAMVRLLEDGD
Description: In order to test the specificity of peptide inhibition, we determined whether peptide KWWCRW affects the activity of a relative of the Int recombinase, namely the bacteriophage P1 Cre protein. Indeed, the peptide inhibits Cre-mediated recombination between two lox site substrates (Cassell and Segall, unpublished results).

[2] = biological target: bacteriophage λ Integrase (Int) (Escherichia phage lambda, UniProt P03700); assay: Int-mediated excisive recombination; assay type: biochemical; conditions: for IC50: IC50, inhibition of excisive recombination, excision pathway
Description: FIG. 11 depicts effect of peptide KWWCRW (diamonds) and peptide KWWWRW (squares) on the remaining 3 pathways of Int-mediated recombination. Recombination extents were normalized to the amount of recombination in untreated reactions and expressed as relative % recombination. A. Effect of peptides on integrative recombination (IC50 values for both peptides are roughly 0.2 μM). Reactions were assembled as for bent-L recombination except that they were incubated at room temperature, the substrates were a supercoiled plasmid (4.8 kb) carrying attP and ^32P labeled 91 bp PCR fragment encoding attB. […] The recombination substrates were PCR fragments encoding the attL (^32P-labeled) and attR sites. Reactions contained 50 NM Xis in addition to Int and IHF (37 nM), as well as 100 ng salmon sperm DNA, and were incubated at room temperature. C. Effect of peptides on straight-L recombination (IC50 values for peptide KWWCRW is 0.06 μM, while for peptide KWWWRW is slightly over 0.1 μM). Reactions were assembled as for bent-L recombination except that they were incubated at room temperature; the substrates were two PCR fragments, one of which was ^32P-labeled and 187 bp, the other of which was unlabeled and 496 bp.
Int Assays. Site-specific recombination and gel mobility shift assays were performed as described (Segall, 1998). Briefly, reactions were performed in a total volume of 10 or 20 μl and typically contained 1-2 nM radiolabeled att site as specified, 4 nM unlabeled att site, 100-300 ng salmon sperm DNA as nonspecific competitor, 44 mM Tris-Ci (pH 8.0), 60 mM KCl, 0.05 mg/ml bovine serum albumin, 7 mM Tris borate (pH 8.9), 5 mM spermidine, 1.3 mM EDTA, and 14.6% v/v glycerol. […] Dried gels were visualized and quantitated using a Molecular Dynamics PhosphorImager.
Excision reactions: Reactions were performed in 10 μL volume containing 20 mM Tris-HCl pH 8, 5 mM spermidine, 0.2 μg BSA, 75 ng to 0.15 μg salmon sperm DNA, 30 mM KCl, and TE (recombination mix). […] All gel images were visualized with a PhosphorImager (Molecular Dynamics) and quantitated with ImageQuant software (Molecular Dynamics).

double-stranded DNA = assay: Peptide binding to DNA (electrophoretic mobility shift)
Description: Do peptides KWWCRW and KWWWRW inhibit recombination by interfering with the formation of higher order complexes? The formation of intermediates in the bent-L pathway depends on Int contacting two different types of sites, the higher affinity arm sites and the lower affinity core sites flanking the loci of DNA cleavage and strand exchange (FIG. 9). […] To determine the effect of KWWCRW on interactions of Int with its core binding sites, we assembled the recombination complexes, known as intasomes or unimolecular complexes (UMC), on an attL variant substrate with 4 mutations in the IHF binding site, collectively known as QH′. These mutations prevent the specific binding of IHF to the QH′ sequence (Gardner and Nash, 1986), but still allow IHF to bind and bend DNA nonspecifically (Segall et al., 1994). […] We next tested the assembly of bent-L pathway intermediates. At 10 μM peptide, all of the labeled DNA was shifted into the well. However, at lower peptide concentrations that still inhibited recombination (0.1-1 μM), intermediates were assembled normally. In fact, one of the intermediates, the bimolecular complex (BMC), accumulates substantially in the presence of the peptide (see also FIG. 12). […] This agrees perfectly with our observations that suboptimal concentrations of peptide lead to accumulation of Holliday junctions (FIG. 10). […] The peptide shifts att site DNA even in the complete absence of Int (data not shown), confirming that KWWCRW interacts with DNA in a concentration-dependent fashion and in a manner that affects the mobility of the DNA much more drastically than expected for the size of the peptides.
Int Assays. Site-specific recombination and gel mobility shift assays were performed as described (Segall, 1998). Briefly, reactions were performed in a total volume of 10 or 20 μl and typically contained 1-2 nM radiolabeled att site as specified, 4 nM unlabeled att site, 100-300 ng salmon sperm DNA as nonspecific competitor, 44 mM Tris-Ci (pH 8.0), 60 mM KCl, 0.05 mg/ml bovine serum albumin, 7 mM Tris borate (pH 8.9), 5 mM spermidine, 1.3 mM EDTA, and 14.6% v/v glycerol. Any deviation from this formulation is noted in the figure legends. Gel shift reactions were incubated for 90 minutes at 37° C., layered without loading dyes onto 5% native polyacrylamide gel (29 acrylamide: 1 bis-acrylamide) and electrophoresed in 0.5× Tris borate EDTA buffer. Recombination reactions were stopped with 0.2× volume of 2% SDS, layered onto 5% polyacrylamide Tris/SDS gels, and electrophoresed in 1× Tris Tricine SDS buffer at 100 mA (Segall, 1998). Dried gels were visualized and quantitated using a Molecular Dynamics PhosphorImager.

[3] = biological target: T2, Vaccinia topoisomerase (type Ib) (Vaccinia virus, UniProt P68698); assay: biochemical; conditions: for IC50: IC50 for plasmid relaxation (activity reduced by one-half), pUC19 DNA
T2 construct: made in house; host or cells: Escherichia coli BL21 infected with bacteriophage λCE6

[4] = biological target: T2, Vaccinia topoisomerase (type Ib); assay: biochemical; assay type: biochemical; conditions: for IC50: IC50 for DNA cleavage (covalent adduct formation)

KWWWRW-NH2 [Peptide 56, KWWWRW]
effect on Cre-mediated recombination [1]: inhibit
IC50 [2]: ~1.1 µM
binding to DNA (double-stranded DNA): appear to bind to DNA
IC50 [3]: 3 to 4 µM
effect on rate of transesterification [4]: slowed the rate of transesterification
inhibition of covalent adduct formation [4]: 99%
IC50 [4]: ~0.5 µM

KWWCRW-NH2 [Peptide 59, KWWCRW]
effect on Cre-mediated recombination [1]: inhibit
IC50 [2]: 1.1 µM and ~1.1 µM
binding to DNA (double-stranded DNA): appear to bind to DNA; also recorded: binds double stranded DNA by itself
peptide concentration that shifts the mobility of double-stranded DNA (double-stranded DNA; reactions with at least 50 ng salmon sperm DNA): ≥ 5 µM
IC50 [3]: 3.5 µM
effect on rate of transesterification [4]: slowed the rate of transesterification
inhibition of covalent adduct formation [4]: 99%
reduction of covalent adduct formation [4]: 90%
IC50 [4]: ~0.5 µM and 0.5 µM
inhibition at 0.7 µM ([4]; read-out: inhibition of cleavage): 40%

WKHYNY-NH2 [Peptide 52, WKHYNY]
accumulation of Holliday junctions in Cre-mediated recombination [1]: does cause accumulation of Holliday junctions
EC50 [2]: 10 to 20 µM
binding to DNA (double-stranded DNA): do not bind double-stranded DNA
effect on DNA relaxation ([3]; peptide concentrations up to 42 μM): no effect
effect on transesterification (DNA cleavage) [4]: did not inhibit transesterification; also recorded: do not inhibit cleavage
